The record followed here is US9580415B2, “Compounds” (Proximagen Limited, priority 2013, dated 2017).

The structures appear in SMILES notation. Where only a bound is given, the exact number is not on record here.

The target of one series is human SSAO (Homo sapiens (Human), UniProt Q16853). Description: SSAO enzyme inhibition assay (benzylamine substrate; hydrogen peroxide/HRP or aldehyde detection). In kind it is biochemical. As to conditions: purified recombinantly expressed human SSAO, RT. On the procedure: All primary assays were performed at RT. with purified recombinantly expressed human SSAO. Enzyme was prepared essentially as described in Öhman et al. (Protein Expression and Purification 46 (2006) 321-331). In addition, secondary- and selectivity assays were performed using SSAO prepared from various tissues or purified rat recombinant SSAO. The enzyme activity was assayed with benzylamine as substrate by measuring either benzaldehyde production, using ^14C-labeled substrate, or by utilizing the production of hydrogen peroxide in a horseradish peroxidase (HRP) coupled reaction. Briefly, test compounds were dissolved in dimethyl sulfoxide (DMSO) to a concentration of 10 mM. Dose-response measurements were assayed by either creating 1:10 serial dilutions in DMSO to produce a 7 point curve or by making 1:3 serial dilutions in DMSO to produce 11 point curves. The top concentrations were adjusted depending on the potency of the compounds and subsequent dilution in reaction buffer yielded a final DMSO concentration ≦2%.
In a horseradish peroxidase (HRP) coupled reaction, hydrogen peroxide oxidation of 10-acetyl-3,7-dihydroxyphenoxazine produced resorufin, which is a highly fluorescent compound (Zhout and Panchuk-Voloshina. Analytical Biochemistry 253 (1997) 169-174; Amplex® Red Hydrogen Peroxide/peroxidase Assay kit, Invitrogen A22188). Enzyme and compounds in 50 mM sodium phosphate, pH 7.4 were set to pre-incubate in flat-bottomed microtiter plates for approximately 15 min before initiating the reaction by addition of a mixture of HRP, benzylamine and Amplex reagent. Benzylamine concentration was fixed at a concentration corresponding to the Michaelis constant, determined using standard procedures. Fluorescence intensity was then measured at several time points during 1-2 h, exciting at 544 nm and reading the emission at 590 nm. For the human SSAO assay final concentrations of the reagents in the assay wells were: SSAO enzyme 1 ug/ml, benzylamine 100 uM, Amplex reagent 20 uM, HRP 0.1 U/mL and varying concentrations of test compound. The inhibition was measured as % decrease of the signal compared to a control without inhibitor (only diluted DMSO). The background signal from a sample containing no SSAO enzyme was subtracted from all data points. Data was fitted to a four parameter logistic model and IC50 values were calculated using the GraphPad Prism 4 or XLfit 4 programs.
SSAO activity was assayed using […] benzylamine and analysed by measuring radioactive benzaldehyde. In a white 96-well optiplate (Packard), 20 uL of diluted test compound was pre-incubated at room temperature with 20 uL SSAO enzyme for approximately 15 min with continuous agitation. All dilutions were made with PBS. The reaction was initiated by adding 20 uL of the benzylamine substrate solution containing Benzylamine hydrochloride (CFA589, GE Healthcare). The plate was incubated for 1 h as above after which the reaction was stopped by acidification (10 uL 1M aq HCl). Then 90 uL Micro Scint-E solution (Perkin-Elmer) was added to each well and the plate was continuously mixed for 15 min. Phase separation occurred instantly and activity was read in a Topcount scintillation counter (Perkin-Elmer). In the final reaction well, the human recombinant SSAO concentration was 10 ug/ml. In order to optimize sensitivity, the substrate concentration was decreased as compared to the HRP coupled assay in order to get a higher fraction of radioactive product. In the human SSAO assay, benzylamine concentration was 40 uM (0.2 uCi/mL). Data was analysed as above.

The target in the next series is hERG K+ channel (Homo sapiens (Human), UniProt Q12809). Nature of the series: hERG assay, IonWorks patch clamp electrophysiology. In kind it is cell-based. The conditions noted are these: Chinese Hamster Lung cell line stably expressing hERG, IonWorks Quattro, max 11 uM. On the procedure: Compounds of the invention were tested for inhibition of the human ether a go-go related gene (hERG) K^+ channel using IonWorks patch clamp electrophysiology. 8 Point concentration-response curves were generated on two occasions using 3-fold serial dilutions from the maximum assay concentration (11 uM). Electrophysiological recordings were made from a Chinese Hamster Lung cell line stably expressing the full length hERG channel. Single cell ion currents were measured in the perforated patch clamp configuration (100 ug/mL amphoterocin) at room temperature using an IonWorks Quattro instrument. The internal solution contained 140 mM KCl, 1 mM MgCl2, 1 mM EGTA and 20 mM HEPES and was buffered to pH 7.3. The external solution contained 138 mM NaCl, 2.7 mM KCl, 0.9 mM CaCl2, 0.5 mM MgCl2, 8 mM Na2HPO4 and 1.5 mM KH2PO4, and was buffered to pH 7.3. Cells were clamped at a holding potential of […] for 30 s and then stepped to +40 mV for 1 s. This was followed by a hyperpolarising step of 1 s to […] to evoke the hERG tail current. This sequence was repeated 5 times at a frequency of 0.25 Hz. Currents were measured from the tail step at the 5th pulse, and referenced to the holding current. […] A minimum of 17 cells were required for each pIC50 curve fit.
hERG K+ channel, sequence (Q12809 whole entry): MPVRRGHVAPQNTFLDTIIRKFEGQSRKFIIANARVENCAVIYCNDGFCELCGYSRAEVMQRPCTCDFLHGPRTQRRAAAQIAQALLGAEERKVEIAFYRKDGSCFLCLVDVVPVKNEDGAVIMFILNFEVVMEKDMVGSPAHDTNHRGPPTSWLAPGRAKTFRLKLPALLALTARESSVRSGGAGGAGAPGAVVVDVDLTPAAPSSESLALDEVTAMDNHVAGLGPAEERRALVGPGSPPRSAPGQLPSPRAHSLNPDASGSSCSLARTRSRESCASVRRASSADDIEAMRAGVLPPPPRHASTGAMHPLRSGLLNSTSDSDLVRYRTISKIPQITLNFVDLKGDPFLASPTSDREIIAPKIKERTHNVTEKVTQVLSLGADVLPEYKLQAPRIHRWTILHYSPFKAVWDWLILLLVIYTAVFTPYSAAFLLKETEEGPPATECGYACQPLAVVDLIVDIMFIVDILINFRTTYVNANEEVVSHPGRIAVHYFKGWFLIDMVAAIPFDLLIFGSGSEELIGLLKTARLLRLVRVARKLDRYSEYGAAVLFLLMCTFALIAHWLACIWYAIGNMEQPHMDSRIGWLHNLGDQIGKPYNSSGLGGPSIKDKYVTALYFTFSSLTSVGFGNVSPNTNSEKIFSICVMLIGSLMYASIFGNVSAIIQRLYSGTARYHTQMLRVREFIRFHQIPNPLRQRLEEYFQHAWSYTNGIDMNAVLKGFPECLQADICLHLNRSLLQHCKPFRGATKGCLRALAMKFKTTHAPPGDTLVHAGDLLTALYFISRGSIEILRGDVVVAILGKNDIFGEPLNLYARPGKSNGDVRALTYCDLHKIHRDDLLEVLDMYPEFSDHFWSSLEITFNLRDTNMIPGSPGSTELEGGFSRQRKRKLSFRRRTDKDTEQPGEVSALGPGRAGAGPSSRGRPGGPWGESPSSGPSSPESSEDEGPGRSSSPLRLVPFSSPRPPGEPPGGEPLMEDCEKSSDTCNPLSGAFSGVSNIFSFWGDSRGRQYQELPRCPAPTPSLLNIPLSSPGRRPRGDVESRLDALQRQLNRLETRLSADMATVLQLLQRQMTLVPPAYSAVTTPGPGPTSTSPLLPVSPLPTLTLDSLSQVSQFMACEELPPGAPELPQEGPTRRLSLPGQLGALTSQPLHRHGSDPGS

human SSAO, sequence (Q16853 whole entry): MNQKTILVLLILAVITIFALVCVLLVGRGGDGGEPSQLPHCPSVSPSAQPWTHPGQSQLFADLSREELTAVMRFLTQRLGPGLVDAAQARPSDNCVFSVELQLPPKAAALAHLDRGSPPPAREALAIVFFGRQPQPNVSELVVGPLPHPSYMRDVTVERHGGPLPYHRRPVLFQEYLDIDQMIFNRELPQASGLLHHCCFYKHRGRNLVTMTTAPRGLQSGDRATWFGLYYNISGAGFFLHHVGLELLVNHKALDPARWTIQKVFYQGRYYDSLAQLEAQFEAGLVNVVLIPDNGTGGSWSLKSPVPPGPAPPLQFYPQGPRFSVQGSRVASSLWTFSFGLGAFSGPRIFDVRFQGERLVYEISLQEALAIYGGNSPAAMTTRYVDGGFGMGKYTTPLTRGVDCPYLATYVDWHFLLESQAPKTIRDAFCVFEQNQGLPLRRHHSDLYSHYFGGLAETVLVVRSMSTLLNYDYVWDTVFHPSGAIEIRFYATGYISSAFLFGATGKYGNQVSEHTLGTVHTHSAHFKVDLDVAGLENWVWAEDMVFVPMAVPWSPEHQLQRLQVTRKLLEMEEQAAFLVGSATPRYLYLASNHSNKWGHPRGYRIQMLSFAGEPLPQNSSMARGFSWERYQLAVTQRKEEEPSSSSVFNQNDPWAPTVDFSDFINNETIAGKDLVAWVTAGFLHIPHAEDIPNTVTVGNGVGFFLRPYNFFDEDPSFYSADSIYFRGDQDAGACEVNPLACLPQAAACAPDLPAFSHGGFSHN

By IC50 is commonly meant the point on the concentration scale where inhibition reaches its midpoint. For `NC(=O)N1CCC(c2c(-c3ccc(N)nc3)n(-c3ccc(Cl)cc3)c3cnccc23)CC1` [Example 1, 4-[2-(6-Aminopyridin-3-yl)-1-(4-chlorophenyl)-1H-pyrrolo[2,3-c]pyridin-3-yl]piperidine-1-carboxamide], the IC50 at human SSAO is below 10 nM; on hERG K+ channel (human, pH 7.3), 1000 to 10000 nM.

As for `NC(=O)N1CCC(c2c(-c3cccnc3)n(-c3ccc(Cl)cc3)c3cnccc23)CC1` [Example 2, 4-[1-(4-Chlorophenyl)-2-(pyridin-3-yl)-1H-pyrrolo[2,3-c]pyridin-3-yl]piperidine-1-carboxamide; formic acid], the IC50 at human SSAO was 10 to 100 nM; against hERG K+ channel (human, pH 7.3), 1000 to 10000 nM.

As to `COc1ccc(-c2c(C3CCN(C(N)=O)CC3)c3ccncc3n2-c2ccc(Cl)cc2)cn1` [Example 3, 4-[1-(4-Chlorophenyl)-2-(6-methoxypyridin-3-yl)-1H-pyrrolo[2,3-c]pyridin-3-yl]piperidine-1-carboxamide; formic acid], at human SSAO, the IC50 is below 10 nM.

On to `COc1cc(-c2c(C3CCN(C(N)=O)CC3)c3ccncc3n2-c2ccc(Cl)cc2)ccn1` [Example 4, 4-[1-(4-Chlorophenyl)-2-(2-methoxypyridin-4-yl)-1H-pyrrolo[2,3-c]pyridin-3-yl]piperidine-1-carboxamide; formic acid], for which the IC50 on human SSAO is below 10 nM; at hERG K+ channel, 100 to 1000 nM.

As for `CN1CCN(c2cc(-c3c(C4CCN(C(N)=O)CC4)c4ccncc4n3-c3ccc(Cl)cc3)ccn2)CC1` [Example 5, 4-[1-(4-Chlorophenyl)-2-[2-(4-methylpiperazin-1-yl)pyridin-4-yl]-1H-pyrrolo[2,3-c]pyridin-3-yl]piperidine-1-carboxamide; bis(formic acid)], at human SSAO, the IC50 is below 10 nM.

In the case of `NC(=O)N1CCC(c2c(-c3ccc(N4CCOCC4)nc3)n(-c3ccc(Cl)cc3)c3cnccc23)CC1` [Example 6, 4-[1-(4-Chlorophenyl)-2-[6-(morpholin-4-yl)pyridin-3-yl]-1H-pyrrolo[2,3-c]pyridin-3-yl]piperidine-1-carboxamide], on human SSAO, the IC50 was below 10 nM.

With `NC(=O)N1CCC(c2c(-c3cncnc3)n(-c3ccc(Cl)cc3)c3cnccc23)CC1` [Example 7, 4-[1-(4-Chlorophenyl)-2-(pyrimidin-5-yl)-1H-pyrrolo[2,3-c]pyridin-3-yl]piperidine-1-carboxamide], the IC50 at human SSAO was in the range of 10 to 100 nM; at hERG K+ channel (human, pH 7.3) it was 1000 to 10000 nM.

On to `NC(=O)N1CCC(c2c(-c3cc[nH]n3)n(-c3ccc(Cl)cc3)c3cnccc23)CC1` [Example 8, 4-[1-(4-Chlorophenyl)-2-(1H-pyrazol-3-yl)-1H-pyrrolo[2,3-c]pyridin-3-yl]piperidine-1-carboxamide], for which the IC50 at human SSAO was in the range of 10 to 100 nM; at hERG K+ channel (human, pH 7.3), 1000 to 10000 nM.

On to `NC(=O)N1CCC(c2c(-c3cn[nH]c3)n(-c3ccc(Cl)cc3)c3cnccc23)CC1` [Example 9, 4-[1-(4-Chlorophenyl)-2-(1H-pyrazo1-4-yl)-1H-pyrrolo[2,3-c]pyridin-3-yl]piperidine-1-carboxamide], for which the values for the IC50 at human SSAO and at hERG K+ channel were below 10 nM and above 10000 nM, respectively.

With `Cn1cc(-c2c(C3CCN(C(N)=O)CC3)c3ccncc3n2-c2ccc(Cl)cc2)cn1` [Example 10, 4-[1-(4-Chlorophenyl)-2-(1-methyl-1H-pyrazol-4-yl)-1H-pyrrolo[2,3-c]pyridin-3-yl]piperidine-1-carboxamide; trifluoroacetic acid], the IC50 at human SSAO is below 10 nM.

In the case of `Cn1nccc1-c1c(C2CCN(C(N)=O)CC2)c2ccncc2n1-c1ccc(Cl)cc1` [Example 11, 4-[1-(4-Chlorophenyl)-2-(1-methyl-1H-pyrazol-5-yl)-1H-pyrrolo[2,3-c]pyridin-3-yl]piperidine-1-carboxamide], the IC50 on human SSAO is below 10 nM.

As to `Cn1cncc1-c1c(C2CCN(C(N)=O)CC2)c2ccncc2n1-c1ccc(Cl)cc1` [Example 12, 4-[1-(4-Chlorophenyl)-2-(1-methyl-1H-imidazol-5-yl)-1H-pyrrolo[2,3-c]pyridin-3-yl]piperidine-1-carboxamide], the IC50 at human SSAO is below 10 nM; against hERG K+ channel, above 10000 nM.

Turning to `NC(=O)N1CCC(c2c(-n3cccn3)n(-c3ccc(Cl)cc3)c3cnccc23)CC1` [Example 13, 4-[1-(4-Chlorophenyl)-2-(1H-pyrazol-1-yl)-1H-pyrrolo[2,3-c]pyridin-3-yl]piperidine-1-carboxamide; formic acid], the IC50 at human SSAO fell in the range of 10 to 100 nM; at hERG K+ channel (human, pH 7.3), 1000 to 10000 nM.

Turning to `NC(=O)N1CCC(c2c(-n3ccnc3)n(-c3ccc(Cl)cc3)c3cnccc23)CC1` [Example 14, 4-[1-(4-Chlorophenyl)-2-(1H-imidazol-1-yl)-1H-pyrrolo[2,3-c]pyridin-3-yl]piperidine-1-carboxamide; bis(formic acid)], the IC50 at human SSAO was 10 to 100 nM; against hERG K+ channel, above 10000 nM.

On to `NC(=O)N1CCC(c2c(-n3ccnn3)n(-c3ccc(Cl)cc3)c3cnccc23)CC1` [Example 15, 4-[1-(4-Chlorophenyl)-2-(1H-1,2,3-triazol-1-yl)-1H-pyrrolo[2,3-c]pyridin-3-yl]piperidine-1-carboxamide], for which the IC50 on human SSAO lay in the range of 100 to 350 nM.

Take `NC(=O)N1CCC(c2c(-n3cncn3)n(-c3ccc(Cl)cc3)c3cnccc23)CC1` [Example 16, 4-[1-(4-Chlorophenyl)-2-(1H-1,2,4-triazol-1-yl)-1H-pyrrolo[2,3-c]pyridin-3-yl]piperidine-1-carboxamide]: at human SSAO, the IC50 lay within 100 to 350 nM.

With `Clc1ccc(-n2c(-c3ccncc3)c(C3CCNCC3)c3ccncc32)cc1` [Example 17, 4-[1-(4-Chlorophenyl)-3-(piperidin-4-yl)-1H-pyrrolo[2,3-c]pyridin-2-yl]pyridine], the IC50 at human SSAO was below 10 nM; against hERG K+ channel (human, pH 7.3), 1000 to 10000 nM.

On to `Nc1ccc(-c2c(C3CCNCC3)c3ccncc3n2-c2ccc(Cl)cc2)cn1` [Example 18, 5-[1-(4-Chlorophenyl)-3-(piperidin-4-yl)-1H-pyrrolo[2,3-c]pyridin-2-yl]pyridin-2-amine], for which the IC50 on human SSAO is 10 to 100 nM; against hERG K+ channel, above 10000 nM.

Consider `CN(C)Cc1c(-c2ccncc2)n(-c2ccc(Cl)cc2)c2cnccc12` [Example 19, {[1-(4-Chlorophenyl)-2-(pyridin-4-yl)-1H-pyrrolo[2,3-c]pyridin-3-yl]methyl}dimethyl amine], for which the IC50 on human SSAO lay in the range of 10 to 100 nM; against hERG K+ channel (human, pH 7.3) it was 1000 to 10000 nM.

`CN(C)Cc1c(-c2cccnc2)n(-c2ccc(Cl)cc2)c2cnccc12` [Example 20, {[1-(4-Chlorophenyl)-2-(pyridin-3-yl)-1H-pyrrolo[2,3-c]pyridin-3-yl]methyl}dimethyl amine]: the IC50 on human SSAO is 100 to 350 nM.

As to `Clc1ccc(-n2c(-c3nn[nH]n3)c(C3CCNCC3)c3ccncc32)cc1` [Example 21, 4-[1-(4-Chlorophenyl)-2-(2H-1,2,3,4-tetrazol-5-yl)-1H-pyrrolo[2,3-c]pyridin-3-yl]piperidine; bis(trifluoroacetic acid)], the IC50 at human SSAO is 100 to 350 nM; against hERG K+ channel it was above 10000 nM.
